# Results taken from article PMC9868654, “Discovery of a potent olaparib–chlorambucil hybrid inhibitor of PARP1 for the treatment of cancer” (Frontiers in Pharmacology, 2023).
# Key:
# K562 cells [1] = assay: Cell cycle analysis (PI staining, flow cytometry); type: cell-based; settings: for effect on cell cycle (in words): K562, 24 h, C2 1.25–5.0 µM, olaparib and chlorambucil 2.5–10 µM
# Description: K562 and HCC1937 cells were incubated with different doses of molecule C2, olaparib, or chlorambucil for 24 h. After treatment, cells were collected and fixed with 70% pre-chilled ethanol in PBS and stored at −20°C overnight. The cells were then washed twice with PBS, incubated with 100 μg/ml RNase I (Solarbio, China) at 37°C for 1 h, and stained with propidium iodide (PI, 10 μg/ml, Solarbio, China) for 30 min, in the dark, at room temperature. Finally, the DNA content was measured using flow cytometry (FACSAria III, Becton Dickinson, United States). The data were analyzed and fitted using ModFit software.
# K562 cells [2] = assay: Cell apoptosis analysis (Annexin V-BV421/7-AAD, flow cytometry); type: cell-based; settings: 24 h, control .90%
# Description: K562 cells were treated with various concentrations of molecule C2, olaparib, or chlorambucil for 24 h. Cells were then harvested and washed twice with PBS and then resuspended with binding buffer (Becton Dickinson, United States). Cells were incubated with Annexin V-BV421 (Becton Dickinson, United States) and 7-AAD (Becton Dickinson, United States) for double labeling for 30 min, in the dark, at room temperature, followed by analysis using flow cytometry (FACSAria III, Becton Dickinson, United States). The data were analyzed using FlowJo v10 software.
# SKOV3 cells = assay: In vitro antiproliferative assay (CCK-8); type: cell-based; settings: Homo sapiens, SK-OV-3; SKOV3, without BRCA mutations; CCK-8, 72 h; mean of three
# Description: (§1) The proliferation of cancer cells was tested by CCK-8 assay. Briefly, cells were seeded in 96-well plates at approximately 5 × 10^3 cells per well. The cells were treated with test compounds after 24 h of incubation. CCK-8 reagent ([…]) was added to each well after 72 h of incubation, and the cells were then incubated at 37°C for 4 h. The light absorbance at 450 nm was measured using an Opsys microplate reader (Dynex Technologies, Chantilly, VA, United States). Results are illustrated as percentage viability normalized to DMSO-treated control cells.
# HCC1937 cells = assay: In vitro antiproliferative assay (CCK-8); type: cell-based; settings: Homo sapiens; HCC1937, BRCA-mutated; CCK-8, 72 h; mean of three
# Description: as §1
# 8226 cells = assay: In vitro antiproliferative assay (CCK-8); type: cell-based; settings: 8226, without BRCA mutations; CCK-8, 72 h; mean of three
# Description: as §1
# SW620 cells = assay: In vitro antiproliferative assay (CCK-8); type: cell-based; settings: Homo sapiens, SW-620; SW620, without BRCA mutations; CCK-8, 72 h; mean of three
# Description: as §1
# Raji cells = assay: In vitro antiproliferative assay (CCK-8); type: cell-based; settings: Homo sapiens, without BRCA mutations, CCK-8, 72 h, mean of three
# Description: as §1
# CH151 cells = assay: In vitro antiproliferative assay (CCK-8); type: cell-based; settings: CH151, without BRCA mutations; CCK-8, 72 h; mean of three
# Description: as §1
# A549 cells = assay: In vitro antiproliferative assay (CCK-8); type: cell-based; settings: Homo sapiens; A549, without BRCA mutations; CCK-8, 72 h; mean of three
# Description: as §1
# MCF-7 cells = assay: In vitro antiproliferative assay (CCK-8); type: cell-based; settings: Homo sapiens, MCF7; MCF-7, without BRCA mutations; CCK-8, 72 h; mean of three
# Description: as §1
# K562 cells [3] = assay: In vitro antiproliferative assay (CCK-8); type: cell-based; settings: Homo sapiens; K562, without BRCA mutations; CCK-8, 72 h; mean of three
# Description: as §1
# B16 cells = assay: In vitro antiproliferative assay (CCK-8); type: cell-based; settings: Mus musculus; B16, without BRCA mutations; CCK-8, 72 h; mean of three
# Description: as §1
# MDA-MB-231 cells = assay: In vitro antiproliferative assay (CCK-8); type: cell-based; settings: Homo sapiens; MDA-MB-231, without BRCA mutations; CCK-8, 72 h; mean of three
# Description: as §1
# Hela cells = assay: In vitro antiproliferative assay (CCK-8); type: cell-based; settings: Homo sapiens, without BRCA mutations, CCK-8, 72 h, mean of three
# Description: as §1
# MDA-MB-436 cells = assay: In vitro antiproliferative assay (CCK-8); type: cell-based; settings: Homo sapiens; MDA-MB-436, BRCA-mutated; CCK-8, 72 h; mean of three
# Description: as §1
# U87 cells = assay: In vitro antiproliferative assay (CCK-8); type: cell-based; settings: Homo sapiens, U-87 MG; U87, without BRCA mutations; CCK-8, 72 h; mean of three
# Description: as §1
# U251 cells = assay: In vitro antiproliferative assay (CCK-8); type: cell-based; settings: Homo sapiens, U-251; U251, without BRCA mutations; CCK-8, 72 h; mean of three
# Description: as §1
# Capan-1 cells = assay: In vitro antiproliferative assay (CCK-8); type: cell-based; settings: Homo sapiens; Capan-1, BRCA-mutated; CCK-8, 72 h; mean of three
# Description: as §1
# PARP1 = PARP1 (Homo sapiens, UniProt P09874); assay: PARP1 enzyme inhibitory assay; type: biochemical; settings: Table 2, B and C series; mean of three experiments
# Sequence of PARP1 (P09874 whole entry): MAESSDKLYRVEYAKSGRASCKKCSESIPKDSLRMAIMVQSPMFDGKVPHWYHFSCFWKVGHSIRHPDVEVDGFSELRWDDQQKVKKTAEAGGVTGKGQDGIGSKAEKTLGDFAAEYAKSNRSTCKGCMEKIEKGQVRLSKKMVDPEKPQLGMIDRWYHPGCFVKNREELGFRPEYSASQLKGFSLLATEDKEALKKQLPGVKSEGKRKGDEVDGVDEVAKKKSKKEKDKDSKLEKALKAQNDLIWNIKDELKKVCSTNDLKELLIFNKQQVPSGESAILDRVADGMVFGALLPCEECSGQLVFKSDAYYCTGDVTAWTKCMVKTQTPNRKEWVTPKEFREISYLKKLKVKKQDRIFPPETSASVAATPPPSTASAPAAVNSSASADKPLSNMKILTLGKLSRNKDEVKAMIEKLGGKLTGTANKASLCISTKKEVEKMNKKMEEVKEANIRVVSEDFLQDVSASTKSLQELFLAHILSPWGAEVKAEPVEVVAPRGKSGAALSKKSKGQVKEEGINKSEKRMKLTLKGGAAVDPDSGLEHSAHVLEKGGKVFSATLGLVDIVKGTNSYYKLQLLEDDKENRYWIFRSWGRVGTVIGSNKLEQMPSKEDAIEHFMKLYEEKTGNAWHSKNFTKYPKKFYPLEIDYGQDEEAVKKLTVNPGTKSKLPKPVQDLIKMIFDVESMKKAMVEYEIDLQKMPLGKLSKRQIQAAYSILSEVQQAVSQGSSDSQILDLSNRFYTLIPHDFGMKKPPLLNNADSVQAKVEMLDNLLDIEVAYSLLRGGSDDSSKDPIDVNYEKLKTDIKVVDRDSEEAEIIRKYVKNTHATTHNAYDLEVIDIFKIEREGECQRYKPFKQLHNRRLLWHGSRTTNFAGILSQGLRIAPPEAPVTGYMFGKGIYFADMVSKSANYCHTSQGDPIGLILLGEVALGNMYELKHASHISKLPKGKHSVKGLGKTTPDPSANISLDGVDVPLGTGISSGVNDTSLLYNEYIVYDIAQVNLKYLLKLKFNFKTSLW
# [4] = design: method as in Gala et al., 2020; settings: in both aqueous and lipophilic solutions; ref Gala et al., 2020; cited from earlier work
# [5] = design: method as in Jackson and Chester, 2015; settings: ref Jackson and Chester, 2015; cited from earlier work
Compound,effect on cell cycle (in words) (K562 cells [1]),IC50 (SKOV3 cells) [µM],IC50 (HCC1937 cells) [µM],IC50 (8226 cells) [µM],IC50 (SW620 cells) [µM],IC50 (Raji cells) [µM],IC50 (CH151 cells) [µM],IC50 (A549 cells) [µM],IC50 (MCF-7 cells) [µM],IC50 (K562 cells [3]) [µM],IC50 (B16 cells) [µM],IC50 (MDA-MB-231 cells) [µM],IC50 (Hela cells) [µM],IC50 (MDA-MB-436 cells) [µM],IC50 (U87 cells) [µM],IC50 (U251 cells) [µM],IC50 (Capan-1 cells) [µM],"percentage of apoptotic cells (apoptotic rate) (K562 cells [2]; K562, 5 μM) [%]","percentage of apoptotic cells (apoptotic rate) (K562 cells [2]; K562, 10 µM) [%]",other results
"O=C(CCCc1ccc(N(CCCl)CCCl)cc1)N1CCN(C(=O)c2cc(Cc3n[nH]c(=O)c4ccccc34)ccc2F)CC1 [C2, 4-(3-(4-(4-(4-(Bis(2-chloroethyl)amino)phenyl)butanoyl)piperazine-1-carbonyl)-4-fluorobenzyl)phthalazin-1(2H)-one]",increased cell number at the G2/M phase in a dose-dependent manner,4.04 ± 0.25,0.18 ± 0.01,3.62 ± 0.2,6.41 ± 0.46,1.21 ± 0.02,2.77 ± 0.13,2.01 ± 0.13,2.28 ± 0.11,1.12 ± 0.08,11.7 ± 1.01,6.33 ± 0.35,1.65 ± 0.11,0.013 ± 0.001,2.86 ± 0.01,2.58 ± 0.14,0.086 ± 0.006,–,–,"percentage of apoptotic cells (apoptotic rate) (K562 cells [2]; K562, 1 μM): 10.96%; percentage of apoptotic cells (apoptotic rate) (K562 cells [2]; K562, 2 µM): 12.69%; IC50 (PARP1): 0.0009 ± 8e-05 µM"
O=C(O)CCCc1ccc(N(CCCl)CCCl)cc1 [Chlorambucil],increased cell number at the G2/M phase in a dose-dependent manner,3.98 ± 0.22,> 1,> 100,10 ± 1.01,40.6 ± 3.6,> 100,89.4 ± 3.4,19.5 ± 1.7,> 20,> 100,95.3 ± 5.7,> 100,> 1,> 100,21.1 ± 1.8,> 1,2.49,2.96,"proportion of cells in the G2/M phase (K562 cells [1]; K562, 10 µM, 24 h): 61.60%"
O=C(c1cc(Cc2n[nH]c(=O)c3ccccc23)ccc1F)N1CCN(C(=O)C2CC2)CC1 [Olaparib],did not exhibit any effects,12.8 ± 1.2,0.24 ± 0.01,66.8 ± 5.5,17.7 ± 1.2,4.4 ± 0.33,24.9 ± 1.5,1.62 ± 0.11,30.6 ± 2.1,10.4 ± 0.72,> 100,53.8 ± 3.6,11.6 ± 1.01,0.047 ± 0.003,26 ± 1.2,> 100,0.129 ± 0.011,1.53,1.91,solubility [4]: low solubility; pharmacokinetics profiles and bioavailability [5]: relatively poor
